Molecules are shown by their SMILES.

Usually inhibition stands for the share of the control response that was lost under treatment.

This test concerns Pseudomonas aeruginosa. Kind of test: Antibacterial activity against Pseudomonas aeruginosa PAO1 assessed as inhibition of biofilm formation at 10 ug/ml after 24 hrs. Type of test: functional. The settings on record: PAO1, 24 h.
`C[C@H]1[C@H](C)CC[C@]2(C(=O)O)CC[C@]3(C)C(=CC[C@@H]4[C@@]5(C)CC[C@H](O)C(C)(C)[C@@H]5CC[C@]43C)[C@H]12` [URSOLIC ACID]: the inhibition at 10 µg/mL turned out to be 35%. Take `C[C@@H]1[C@H]2C3=CC[C@@H]4[C@@]5(C)CC[C@H](OC(=O)/C=C\c6ccc(O)cc6)C(C)(C)[C@@H]5CC[C@@]4(C)[C@]3(C)CC[C@@]2(C(=O)O)CC[C@]1(C)O`: the inhibition at 10 µg/mL was 62%. As to `C[C@H]1[C@H](C)CC[C@]2(C(=O)O)CC[C@]3(C)C(=CC[C@@H]4[C@@]5(C)C[C@@H](O)[C@H](OC(=O)/C=C/c6ccc(O)cc6)C(C)(C)[C@@H]5CC[C@]43C)[C@H]12`, the inhibition at 10 µg/mL amounted to 35%. The result for `COc1cc(/C=C/C(=O)O[C@H]2[C@H](O)C[C@]3(C)[C@H]4CC=C5[C@@H]6[C@@H](C)[C@H](C)CC[C@]6(C(=O)O)CC[C@@]5(C)[C@]4(C)CC[C@H]3C2(C)C)ccc1O` reads 48%.

Consider `C[C@H]1[C@H](C)CC[C@]2(C(=O)O)CC[C@]3(C)C(=CC[C@@H]4[C@@]5(C)C[C@@H](O)[C@H](OC(=O)/C=C\c6ccc(O)cc6)C(C)(C)[C@@H]5CC[C@]43C)[C@H]12`, for which the inhibition at 10 µg/mL turned out to be 32%.

The values above are taken from ChEMBL document CHEMBL1157230, “Bacterial biofilm inhibitors from Diospyros dendo” (2006).
